From ChEMBL document CHEMBL1201862, “PubChem BioAssay data set” (2004)
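48-hour exposure; five concentrations; linearly interpolated endpoints. GI50 is the concentration that inhibits growth by half.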 Activity calls are given as the source filed them. Rule as the data show it: active = GI50 up to about 1.1 µM and inactive = higher.

What was measured:
Test in all cases: NCI anticancer screen, dose series, 48 h
786-0 = tested on: 786-0
A498 = tested on: A498
A549 = tested on: A549
ACHN = tested on: ACHN
CCRF-CEM = tested on: CCRF-CEM
COLO 205 = tested on: COLO 205
DLD-1 = tested on: DLD-1
DMS-114 = tested on: DMS-114
DMS-273 = tested on: DMS-273
EKVX = tested on: EKVX
HCC 2998 = tested on: HCC 2998
HCT-116 = tested on: HCT-116
HCT-15 = tested on: HCT-15
HL-60 = tested on: HL-60
HOP-62 = tested on: HOP-62
HOP-92 = tested on: HOP-92
HT-29 = tested on: HT-29
IGROV-1 = tested on: IGROV-1
K562 = tested on: K562
KM-20L2 = tested on: KM-20L2
KM12 = tested on: KM12
LOX IMVI = tested on: LOX IMVI
LXFL 529 = tested on: LXFL 529
M14 = tested on: M14
M19-MEL = tested on: M19-MEL
MOLT-4 = tested on: MOLT-4
NCI-H226 = tested on: NCI-H226
NCI-H23 = tested on: NCI-H23
NCI-H460 = tested on: NCI-H460
NCI-H522 = tested on: NCI-H522
OVCAR-3 = tested on: OVCAR-3
OVCAR-4 = tested on: OVCAR-4
OVCAR-5 = tested on: OVCAR-5
OVCAR-8 = tested on: OVCAR-8
RPMI-8226 = tested on: RPMI-8226
RXF 393 = tested on: RXF 393
SF-268 = tested on: SF-268
SF-295 = tested on: SF-295
SF-539 = tested on: SF-539
SK-MEL-28 = tested on: SK-MEL-28
SK-MEL-2 = tested on: SK-MEL-2
SK-MEL-5 = tested on: SK-MEL-5
SK-OV-3 = tested on: SK-OV-3
SN12C = tested on: SN12C
SNB-19 = tested on: SNB-19
SNB-75 = tested on: SNB-75
SNB-78 = tested on: SNB-78
SW-620 = tested on: SW-620
TK-10 = tested on: TK-10
U-251 = tested on: U-251
UACC-62 = tested on: UACC-62
UO-31 = tested on: UO-31
BT-549 = tested on: BT-549
CAKI-1 = tested on: CAKI-1
DU-145 = tested on: DU-145
Hs-578T = tested on: Hs-578T
MCF7 = tested on: MCF7
MDA-MB-231 = tested on: MDA-MB-231
MDA-MB-435 = tested on: MDA-MB-435
MDA-N = tested on: MDA-N
Malme-3M = tested on: Malme-3M
NCI/ADR-RES = tested on: NCI/ADR-RES
PC-3 = tested on: PC-3
SR = tested on: SR
T47D = tested on: T47D
UACC-257 = tested on: UACC-257

COc1ccc(C(N)=O)c(OC)c1OCc1ccccc1
GI50 (786-0): > 100 µM (inactive)
GI50 (A498): > 100 µM (inactive)
GI50 (A549): > 100 µM (inactive)
GI50 (ACHN): > 100 µM (inactive)
GI50 (CCRF-CEM): > 100 µM (inactive)
GI50 (COLO 205): > 100 µM (inactive)
GI50 (DLD-1): > 100 µM (inactive)
GI50 (DMS-114): > 100 µM (inactive)
GI50 (DMS-273): > 100 µM (inactive)
GI50 (EKVX): > 100 µM (inactive)
GI50 (HCC 2998): > 100 µM (inactive)
GI50 (HCT-116): > 100 µM (inactive)
GI50 (HCT-15): > 100 µM
GI50 (HL-60): > 100 µM (inactive)
GI50 (HOP-62): > 100 µM (inactive)
GI50 (HOP-92): > 100 µM (inactive)
GI50 (HT-29): > 100 µM (inactive)
GI50 (IGROV-1): > 100 µM (inactive)
GI50 (K562): > 100 µM (inactive)
GI50 (KM-20L2): > 100 µM (inactive)
GI50 (KM12): > 100 µM (inactive)
GI50 (LOX IMVI): > 100 µM (inactive)
GI50 (LXFL 529): > 100 µM (inactive)
GI50 (M14): > 100 µM (inactive)
GI50 (M19-MEL): > 100 µM (inactive)
GI50 (MOLT-4): > 100 µM (inactive)
GI50 (NCI-H226): > 100 µM (inactive)
GI50 (NCI-H23): 9.51 µM (inactive)
GI50 (NCI-H460): > 100 µM (inactive)
GI50 (NCI-H522): 12.4 µM (inactive)
GI50 (OVCAR-3): > 100 µM (inactive)
GI50 (OVCAR-4): > 100 µM (inactive)
GI50 (OVCAR-5): > 100 µM (inactive)
GI50 (OVCAR-8): > 100 µM (inactive)
GI50 (RPMI-8226): > 100 µM (inactive)
GI50 (RXF 393): 0.15 µM (active)
GI50 (SF-268): > 100 µM (inactive)
GI50 (SF-295): > 100 µM (inactive)
GI50 (SF-539): > 100 µM (inactive)
GI50 (SK-MEL-28): > 100 µM (inactive)
GI50 (SK-MEL-2): > 100 µM (inactive)
GI50 (SK-MEL-5): > 100 µM (inactive)
GI50 (SK-OV-3): > 100 µM (inactive)
GI50 (SN12C): > 100 µM (inactive)
GI50 (SNB-19): > 100 µM (inactive)
GI50 (SNB-75): > 100 µM (inactive)
GI50 (SNB-78): > 100 µM (inactive)
GI50 (SW-620): > 100 µM (inactive)
GI50 (TK-10): > 100 µM (inactive)
GI50 (U-251): > 100 µM (inactive)
GI50 (UACC-62): > 100 µM (inactive)
GI50 (UO-31): > 100 µM (inactive)

CCCCCCCCCCCCCCCCCc1cccc(OCOCCOC)c1C(=O)O
GI50 (786-0): 18.6 µM (inactive)
GI50 (A498): 17.8 µM (inactive)
GI50 (A549): 18.7 µM (inactive)
GI50 (ACHN): 19.1 µM (inactive)
GI50 (BT-549): 16.9 µM (inactive)
GI50 (CAKI-1): 19.1 µM (inactive)
GI50 (CCRF-CEM): 26.7 µM (inactive)
GI50 (COLO 205): 20.6 µM (inactive)
GI50 (DU-145): 17.7 µM (inactive)
GI50 (EKVX): 18.9 µM (inactive)
GI50 (HCC 2998): 19.1 µM (inactive)
GI50 (HCT-116): 19.4 µM (inactive)
GI50 (HCT-15): 19.3 µM
GI50 (HL-60): 20.9 µM (inactive)
GI50 (HOP-62): 18.8 µM (inactive)
GI50 (HOP-92): 18.9 µM (inactive)
GI50 (HT-29): 17.1 µM (inactive)
GI50 (Hs-578T): 18.6 µM (inactive)
GI50 (IGROV-1): 16.9 µM (inactive)
GI50 (K562): 30.5 µM (inactive)
GI50 (KM12): 17.1 µM (inactive)
GI50 (LOX IMVI): 24.6 µM (inactive)
GI50 (M14): 16.5 µM (inactive)
GI50 (MCF7): 21.7 µM (inactive)
GI50 (MDA-MB-231): 19.7 µM (inactive)
GI50 (MDA-MB-435): 19.2 µM (inactive)
GI50 (MDA-N): 19.1 µM (inactive)
GI50 (MOLT-4): 21.5 µM (inactive)
GI50 (Malme-3M): 10.2 µM (inactive)
GI50 (NCI-H226): 17 µM (inactive)
GI50 (NCI-H23): 15.2 µM (inactive)
GI50 (NCI-H460): 21.5 µM (inactive)
GI50 (NCI-H522): 14.9 µM (inactive)
GI50 (NCI/ADR-RES): 14.5 µM (inactive)
GI50 (OVCAR-3): 16.9 µM (inactive)
GI50 (OVCAR-4): 19.5 µM (inactive)
GI50 (OVCAR-5): 16.8 µM (inactive)
GI50 (OVCAR-8): 16.4 µM (inactive)
GI50 (PC-3): 17.1 µM (inactive)
GI50 (RPMI-8226): 24.3 µM (inactive)
GI50 (RXF 393): 17.9 µM (inactive)
GI50 (SF-268): 17.2 µM (inactive)
GI50 (SF-295): 18.1 µM (inactive)
GI50 (SF-539): 16.2 µM (inactive)
GI50 (SK-MEL-28): 20.1 µM (inactive)
GI50 (SK-MEL-2): 19.5 µM (inactive)
GI50 (SK-MEL-5): 20 µM (inactive)
GI50 (SK-OV-3): 14 µM (inactive)
GI50 (SN12C): 22.4 µM (inactive)
GI50 (SNB-19): 21.3 µM (inactive)
GI50 (SNB-75): 15.5 µM (inactive)
GI50 (SR): 25.4 µM (inactive)
GI50 (SW-620): 20.3 µM (inactive)
GI50 (T47D): 16.5 µM (inactive)
GI50 (TK-10): 18.9 µM (inactive)
GI50 (U-251): 20.3 µM (inactive)
GI50 (UACC-257): 20.5 µM (inactive)
GI50 (UACC-62): 17.7 µM (inactive)
GI50 (UO-31): 17 µM (inactive)
